Experimental data: patent US20250171516A1, “PEPTIDE ACIDS AS A GLP1R AGONIST AND ANTIBODY-DRUG CONJUGATES THEREOF” (Regeneron Pharmaceuticals, Inc., priority 2023, published 2025)
Where two headings read alike, the source gives them in different places. Starred links: 1 amine or outer side, 2 acyl side, 3 side chain; linkers in the order of their positions; H or OH if unused. Non-standard residues stand in square brackets, D forms with d. Residues, ends and D or L forms follow the SMILES beside them. Groups on a side chain read outwards from the residue. ξ: configuration not given here. *: point of attachment. X3 = CCc1cc(OCCCCn2cc(COCCOCCOCCOCCOCCOCCOCCOCCOCCOCCOCCOCCN)nn2)ccc1-c1ccc(C[C@H](N[*:1])C(=O)[*:2])cc1; X2 = CCc1cc(OCCCCn2cc(COCCOCCOCCOCCOCCOCCOCCOCCN[*:3])nn2)ccc1-c1ccc(C[C@H](N[*:1])C(=O)[*:2])cc1; X1 = CCc1cc(OCCCCn2cc(COCCOCCOCCOCCOCCOCCOCCOCCN)nn2)ccc1-c1ccc(C[C@H](N[*:1])C(=O)[*:2])cc1; Bip(2'-Et,4'-O(CH2)4N3) = CCc1cc(OCCCCN=[N+]=[N-])ccc1-c1ccc(C[C@H](N)C(=O)O)cc1; Bip(2'-Et,4'-O(CH2)4NH2) = CCc1cc(OCCCCN)ccc1-c1ccc(C[C@H](N)C(=O)O)cc1; Malonyl(2,2-Me2,histaminyl) = CC(C)(C(=O)NCCc1cnc[nH]1)C(=O)*; Nva(5-(3,5-Me2Ph)) = Cc1cc(C)cc(CCC[C@H](N)C(=O)O)c1; Ala(1H-tetrazol-5-yl) = N[C@@H](Cc1nnn[nH]1)C(=O)O; αMePhe(2-F) = C[C@](N)(Cc1ccccc1F)C(=O)O; γGlu = O=C(O)[C@H](CCC(=O)[*:2])N[*:1]; ξαMePhe(2-F) = CC(N)(Cc1ccccc1F)C(=O)O; tBu = CC(C)(C)*

Target: GLP-1R (Homo sapiens, UniProt P43220)
Experiment: GLP-1R cAMP assay of peptides (Tables 10, 14, 15)
Type: cell-based
[1] = Table 10, read-out: GLP-1R CAMP EC50
[2] = Table 14, peptide amides, read-out: cAMP EC50
[3] = Table 15, peptide acids, read-out: cAMP EC50

GLP-1R, sequence (P43220 24-463): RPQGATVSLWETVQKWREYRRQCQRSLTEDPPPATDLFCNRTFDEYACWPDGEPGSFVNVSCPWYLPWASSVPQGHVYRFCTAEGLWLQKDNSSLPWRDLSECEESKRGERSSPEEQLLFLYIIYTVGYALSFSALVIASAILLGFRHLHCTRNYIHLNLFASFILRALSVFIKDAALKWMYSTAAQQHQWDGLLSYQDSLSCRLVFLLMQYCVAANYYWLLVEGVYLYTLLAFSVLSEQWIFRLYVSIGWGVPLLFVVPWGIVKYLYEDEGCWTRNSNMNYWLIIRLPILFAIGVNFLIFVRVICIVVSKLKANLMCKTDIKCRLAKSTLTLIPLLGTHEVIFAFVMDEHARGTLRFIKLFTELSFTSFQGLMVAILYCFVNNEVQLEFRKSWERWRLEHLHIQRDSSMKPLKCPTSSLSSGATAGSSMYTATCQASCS

SMILES | GLP-1R CAMP Max (Table 10) | EC50 [1] | EC50 [2] | other results
CCc1cc(OCCCCn2cc(COCCOCCOCCOCCOCCOCCOCCOCCN)nn2)ccc1-c1ccc(C[C@H](NC(=O)[C@H](CC(=O)O)NC(=O)[C@H](CO)NC(=O)[C@@H](NC(=O)[C@](C)(Cc2ccccc2F)NC(=O)[C@@H](NC(=O)CNC(=O)[C@H](Cc2nnn[nH]2)NC(=O)C(C)(C)C(=O)NCCc2cnc[nH]2)[C@@H](C)O)[C@@H](C)O)C(N)=O)cc1 ({Malonyl(2,2-Me2,histaminyl)}-[Ala(1H-tetrazol-5-yl)]GT[αMePhe(2-F)]TSD[X1]-NH2) | 104.11% | 59.6 nM |  | 
CCc1cc(OCCCCn2cc(COCCOCCOCCOCCOCCOCCOCCOCCOCCOCCOCCOCCN)nn2)ccc1-c1ccc(C[C@H](NC(=O)[C@H](CC(=O)O)NC(=O)[C@H](CO)NC(=O)[C@@H](NC(=O)[C@](C)(Cc2ccccc2F)NC(=O)[C@@H](NC(=O)CNC(=O)[C@H](Cc2nn[nH]n2)NC(=O)C(C)(C)C(=O)NCCc2c[nH]cn2)[C@@H](C)O)[C@@H](C)O)C(=O)N[C@@H](CCCc2cc(C)cc(C)c2)C(N)=O)cc1 ({Malonyl(2,2-Me2,histaminyl)}-[Ala(1H-tetrazol-5-yl)]GT[αMePhe(2-F)]TSD[X3][Nva(5-(3,5-Me2Ph))]-NH2) |  |  | 1.89 nM | 
CCc1cc(OCCCCN=[N+]=[N-])ccc1-c1ccc(C[C@H](NC(=O)[C@H](CC(=O)O)NC(=O)[C@H](COC(C)(C)C)NC(=O)[C@@H](NC(=O)C(C)(Cc2ccccc2F)NC(=O)[C@@H](NC(=O)CNC(=O)[C@H](Cc2nnn[nH]2)NC(=O)C(C)(C)C(=O)NCCc2cnc[nH]2)[C@@H](C)O)[C@@H](C)O)C(=O)N[C@@H](CCCc2cc(C)cc(C)c2)C(=O)O)cc1 (stereo partly shown) ({Malonyl(2,2-Me2,histaminyl)}-[Ala(1H-tetrazol-5-yl)]GT[ξαMePhe(2-F)]TS(tBu)D[Bip(2'-Et,4'-O(CH2)4N3)][Nva(5-(3,5-Me2Ph))]-OH) | 122.44% | 2.94 nM |  | 
CCc1cc(OCCCCN=[N+]=[N-])ccc1-c1ccc(C[C@H](NC(=O)[C@H](CC(=O)O)NC(=O)[C@H](CO)NC(=O)[C@@H](NC(=O)C(C)(Cc2ccccc2F)NC(=O)[C@@H](NC(=O)CNC(=O)[C@H](Cc2nnn[nH]2)NC(=O)C(C)(C)C(=O)NCCc2cnc[nH]2)[C@@H](C)O)[C@@H](C)O)C(=O)O)cc1 (stereo partly shown) [AA10-AA9-AA8-AA7-AA6-AA5-AA4-AA3-AA2-OH] | 97.92% | 51.2 nM |  | 
C[C@@H](O)[C@H](NC(=O)CNC(=O)[C@H](Cc1nn[nH]n1)NC(=O)C(C)(C)C(=O)NCCc1cnc[nH]1)C(=O)N[C@@](C)(Cc1ccccc1F)C(=O)N[C@H](C(=O)N[C@@H](CO)C(=O)N[C@@H](CC(=O)O)C(=O)O)[C@@H](C)O [AA10-AA9-AA8-AA7-AA6-AA5-AA4-AA3-OH] | −0.25% | > 1000 nM |  | 
C[C@@H](O)[C@H](NC(=O)CNC(=O)[C@H](Cc1nn[nH]n1)NC(=O)C(C)(C)C(=O)NCCc1cnc[nH]1)C(=O)N[C@@](C)(Cc1ccccc1F)C(=O)N[C@H](C(=O)N[C@@H](CO)C(=O)O)[C@@H](C)O [AA10-AA9-AA8-AA7-AA6-AA5-AA4-OH] ({Malonyl(2,2-Me2,histaminyl)}-[Ala(1H-tetrazol-5-yl)]GT[αMePhe(2-F)]TS-OH) | −0.86% | > 1000 nM |  | 
C[C@@H](O)[C@H](NC(=O)[C@](C)(Cc1ccccc1F)NC(=O)[C@@H](NC(=O)CNC(=O)[C@H](Cc1nn[nH]n1)NC(=O)C(C)(C)C(=O)NCCc1cnc[nH]1)[C@@H](C)O)C(=O)O [AA10-AA9-AA8-AA7-AA6-AA5-OH] ({Malonyl(2,2-Me2,histaminyl)}-[Ala(1H-tetrazol-5-yl)]GT[αMePhe(2-F)]T-OH) | −1.23% | > 1000 nM |  | 
C[C@@H](O)[C@H](NC(=O)CNC(=O)[C@H](Cc1nn[nH]n1)NC(=O)C(C)(C)C(=O)NCCc1cnc[nH]1)C(=O)N[C@@](C)(Cc1ccccc1F)C(=O)O [AA10-AA9-AA8-AA7-AA6-OH] ({Malonyl(2,2-Me2,histaminyl)}-[Ala(1H-tetrazol-5-yl)]GT[αMePhe(2-F)]-OH) | −1.13% | > 1000 nM |  | 
C[C@@H](O)[C@H](NC(=O)CNC(=O)[C@H](Cc1nn[nH]n1)NC(=O)C(C)(C)C(=O)NCCc1cnc[nH]1)C(=O)O [AA10-AA9-AA8-AA7-OH] | −0.52% | > 1000 nM |  | 
CC(C)(C(=O)NCCc1cnc[nH]1)C(=O)N[C@@H](Cc1nn[nH]n1)C(=O)NCC(=O)O [AA10-AA9-AA8-OH] | −1.39% | > 1000 nM |  | 
CCc1cc(OCCCCN=[N+]=[N-])ccc1-c1ccc(C[C@H](NC(=O)[C@H](CC(=O)O)NC(=O)[C@H](CO)NC(=O)[C@@H](NC(=O)[C@](C)(Cc2ccccc2F)NC(=O)[C@@H](NC(=O)CNC(=O)[C@H](Cc2nn[nH]n2)NC(=O)C(C)(C)C(=O)NCCc2cnc[nH]2)[C@@H](C)O)[C@@H](C)O)C(=O)N[C@@H](CCCc2cc(C)cc(C)c2)C(N)=O)cc1 [M2361] ({Malonyl(2,2-Me2,histaminyl)}-[Ala(1H-tetrazol-5-yl)]GT[αMePhe(2-F)]TSD[Bip(2'-Et,4'-O(CH2)4N3)][Nva(5-(3,5-Me2Ph))]-NH2) |  |  | 0.359 nM | 
CCc1cc(OCCCCN=[N+]=[N-])ccc1-c1ccc(C[C@H](NC(=O)[C@H](CC(=O)O)NC(=O)[C@H](CO)NC(=O)[C@@H](NC(=O)[C@](C)(Cc2ccccc2F)NC(=O)[C@@H](NC(=O)CNC(=O)[C@H](Cc2nnn[nH]2)NC(=O)C(C)(C)C(=O)NCCc2cnc[nH]2)[C@@H](C)O)[C@@H](C)O)C(=O)N[C@@H](CCCc2cc(C)cc(C)c2)C(N)=O)cc1 [M2361] ({Malonyl(2,2-Me2,histaminyl)}-[Ala(1H-tetrazol-5-yl)]GT[αMePhe(2-F)]TSD[Bip(2'-Et,4'-O(CH2)4N3)][Nva(5-(3,5-Me2Ph))]-NH2) |  |  | 0.497 nM | 
CCc1cc(OCCCCN=[N+]=[N-])ccc1-c1ccc(C[C@H](NC(=O)[C@H](CC(=O)O)NC(=O)[C@H](CO)NC(=O)[C@@H](NC(=O)[C@](C)(Cc2ccccc2F)NC(=O)[C@@H](NC(=O)CNC(=O)[C@@H](N)Cc2nn[nH]n2)[C@@H](C)O)[C@@H](C)O)C(=O)N[C@@H](CCCc2cc(C)cc(C)c2)C(N)=O)cc1 [M2383] (H-[Ala(1H-tetrazol-5-yl)]GT[αMePhe(2-F)]TSD[Bip(2'-Et,4'-O(CH2)4N3)][Nva(5-(3,5-Me2Ph))]-NH2) |  |  | 280 nM | 
CCc1cc(OCCCCN)ccc1-c1ccc(C[C@H](NC(=O)[C@H](CC(=O)O)NC(=O)[C@H](CO)NC(=O)[C@@H](NC(=O)[C@](C)(Cc2ccccc2F)NC(=O)[C@@H](NC(=O)CNC(=O)[C@H](Cc2nnn[nH]2)NC(=O)C(C)(C)C(=O)NCCc2cnc[nH]2)[C@@H](C)O)[C@@H](C)O)C(=O)N[C@@H](CCCc2cc(C)cc(C)c2)C(N)=O)cc1 [M2642] ({Malonyl(2,2-Me2,histaminyl)}-[Ala(1H-tetrazol-5-yl)]GT[αMePhe(2-F)]TSD[Bip(2'-Et,4'-O(CH2)4NH2)][Nva(5-(3,5-Me2Ph))]-NH2) |  |  | 0.0502 nM | 
CCc1cc(OCCCCn2cc(COCCOCCOCCOCCOCCOCCOCCOCCN)nn2)ccc1-c1ccc(C[C@H](NC(=O)[C@H](CC(=O)O)NC(=O)[C@H](CO)NC(=O)[C@@H](NC(=O)[C@](C)(Cc2ccccc2F)NC(=O)[C@@H](NC(=O)CNC(=O)[C@@H](N)Cc2nnn[nH]2)[C@@H](C)O)[C@@H](C)O)C(=O)N[C@@H](CCCc2cc(C)cc(C)c2)C(N)=O)cc1 [M6295] (H-[Ala(1H-tetrazol-5-yl)]GT[αMePhe(2-F)]TSD[X1][Nva(5-(3,5-Me2Ph))]-NH2) |  |  | 351 nM | 
CCc1cc(OCCCCn2cc(COCCOCCOCCOCCOCCOCCOCCOCCNC(=O)CC[C@H](NC(=O)[C@H](CC(C)C)NC(=O)[C@@H](N)CC(C)C)C(=O)O)nn2)ccc1-c1ccc(C[C@H](NC(=O)[C@H](CC(=O)O)NC(=O)[C@H](CO)NC(=O)[C@@H](NC(=O)[C@](C)(Cc2ccccc2F)NC(=O)[C@@H](NC(=O)CNC(=O)[C@H](Cc2nnn[nH]2)NC(=O)C(C)(C)C(=O)NCCc2cnc[nH]2)[C@@H](C)O)[C@@H](C)O)C(=O)N[C@@H](CCCc2cc(C)cc(C)c2)C(N)=O)cc1 [M6296] ({Malonyl(2,2-Me2,histaminyl)}-[Ala(1H-tetrazol-5-yl)]GT[αMePhe(2-F)]TSD[X2]([γGlu-Leu-Leu])[Nva(5-(3,5-Me2Ph))]-NH2) |  |  | 1.19 nM | 
CCc1cc(OCCCCn2cc(COCCOCCOCCOCCOCCOCCOCCOCCNC(=O)CC[C@H](NC(=O)[C@H](CC(C)C)NC(=O)[C@@H](N)CC(C)C)C(=O)O)nn2)ccc1-c1ccc(C[C@H](NC(=O)[C@H](CC(=O)O)NC(=O)[C@H](CO)NC(=O)[C@@H](NC(=O)[C@](C)(Cc2ccccc2F)NC(=O)[C@@H](NC(=O)CNC(=O)[C@H](Cc2nnn[nH]2)NC(=O)C(C)(C)C(=O)NCCc2cnc[nH]2)[C@@H](C)O)[C@@H](C)O)C(=O)N[C@@H](CCCc2cc(C)cc(C)c2)C(=O)O)cc1 [M6297] ({Malonyl(2,2-Me2,histaminyl)}-[Ala(1H-tetrazol-5-yl)]GT[αMePhe(2-F)]TSD[X2]([γGlu-Leu-Leu])[Nva(5-(3,5-Me2Ph))]-OH) | 103.80% |  |  | EC50: 13.4 nM
CCc1cc(OCCCCN=[N+]=[N-])ccc1-c1ccc(C[C@H](NC(=O)[C@H](CC(=O)O)NC(=O)[C@H](CO)NC(=O)[C@@H](NC(=O)[C@](C)(Cc2ccccc2F)NC(=O)[C@@H](NC(=O)CNC(=O)[C@H](Cc2nn[nH]n2)NC(=O)C(C)(C)C(=O)NCCc2cnc[nH]2)[C@@H](C)O)[C@@H](C)O)C(=O)O)cc1 [M6320] |  |  |  | EC50 [3]: 51.2 nM
CCc1cc(OCCCCn2cc(COCCOCCOCCOCCOCCOCCOCCOCCNC(=O)CC[C@H](NC(=O)[C@H](CC(C)C)NC(=O)[C@@H](N)CC(C)C)C(=O)O)nn2)ccc1-c1ccc(C[C@H](NC(=O)[C@H](CC(=O)O)NC(=O)[C@H](CO)NC(=O)[C@@H](NC(=O)C(C)(Cc2ccccc2F)NC(=O)[C@@H](NC(=O)CNC(=O)[C@H](Cc2nn[nH]n2)NC(=O)C(C)(C)C(=O)NCCc2cnc[nH]2)[C@@H](C)O)[C@@H](C)O)C(=O)O)cc1 (stereo partly shown) [M6321] | 33.86% | > 1000 nM |  | EC50 [3]: > 1000 nM
CCc1cc(OCCCCn2cc(COCCOCCOCCOCCOCCOCCOCCOCCNC(=O)CC[C@H](N)C(=O)O)nn2)ccc1-c1ccc(C[C@H](NC(=O)[C@H](CC(=O)O)NC(=O)[C@H](CO)NC(=O)[C@@H](NC(=O)C(C)(Cc2ccccc2F)NC(=O)[C@@H](NC(=O)CNC(=O)[C@H](Cc2nn[nH]n2)NC(=O)C(C)(C)C(=O)NCCc2cnc[nH]2)[C@@H](C)O)[C@@H](C)O)C(=O)O)cc1 (stereo partly shown) [M6322] | 29.24% | > 1000 nM |  | EC50 [3]: > 1000 nM
